From PubChem BioAssay (NCI) come the findings set out here.

Some test systems named below: BT-549 breast; DU-145 prostate; MCF7 breast; MDA-MB-435; PC-3 prostate.
Holding throughout (test): NCI anticancer screen, dose series, 48 h

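48-hour exposure; five concentrations; linearly interpolated endpoints. GI50 marks 50% less growth. TGI: total growth inhibition.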

As for `NCCCCN(Cc1nc2ccccc2[nH]1)[C@H]1CCCc2cccnc21`, the GI50 with BT-549 breast is 22.8 µM; in the experiment with DU-145 prostate it was 29.2 µM; in the experiment on MCF7 breast it was 17.8 µM; with MDA-MB-435 it was 17.4 µM; with PC-3 prostate it was 5.52 µM. Further, the TGI in the experiment on BT-549 breast is greater than 100 µM; in the experiment on DU-145 prostate, greater than 100 µM; with MCF7 breast, greater than 72.7 µM; in the experiment with MDA-MB-435 it was 54.6 µM; in the experiment with PC-3 prostate, greater than 93.2 µM.
As to `O=C1C(=O)c2ccccc2C(O)=C1CCCCCCCCC1CCCCC1`, the TGI stood at 27.5 µM with BT-549 breast; 33.4 µM in the experiment with DU-145 prostate; 19.4 µM in the experiment with MCF7 breast; 17.2 µM in the experiment with MDA-MB-435; 19.5 µM with PC-3 prostate.
`O=C(N/N=C\c1ccc(N(CCCl)CCCl)cc1Cl)c1cccnc1`: the GI50 with BT-549 breast was 22.7 µM; in the experiment with DU-145 prostate it was 16.2 µM; in the experiment with MCF7 breast, 1.39 µM; in the experiment with MDA-MB-435, 17.1 µM; with PC-3 prostate it was 19.2 µM. In addition, the TGI with BT-549 breast was greater than 76 µM; in the experiment with DU-145 prostate, 59.6 µM; in the experiment on MCF7 breast, greater than 82.6 µM; in the experiment with MDA-MB-435 it was 46.1 µM; in the experiment with PC-3 prostate, greater than 100 µM.
On to `Oc1c(N=Nc2ccccc2)c2ccccc2c2ccc3ccccc3c12`, for which the TGI in the experiment with BT-549 breast, in the experiment on DU-145 prostate, in the experiment with MCF7 breast, in the experiment on MDA-MB-435 and in the experiment on PC-3 prostate was greater than 100 µM throughout.
In the case of `CCOC1C=CCCO1` (configuration not stated), the TGI in the experiment on DU-145 prostate, in the experiment on MCF7 breast, in the experiment on MDA-MB-435 and with PC-3 prostate was greater than 100 µM throughout.
For the compound `C=C1C(=O)O[C@H]2[C@H]1CC/C(CNS(=O)(=O)c1cccc3ccccc13)=C\CC[C@@]1(C)O[C@@H]21`, the GI50 is 1.56 µM in the experiment on BT-549 breast; 1.11 µM with DU-145 prostate; 1.36 µM in the experiment with MCF7 breast; 1.6 µM in the experiment on MDA-MB-435; 1.91 µM in the experiment on PC-3 prostate. Besides, the TGI in the experiment on BT-549 breast came out at 3.1 µM; in the experiment with DU-145 prostate, 2.43 µM; in the experiment with MCF7 breast, 3.14 µM; in the experiment on MDA-MB-435, 3.42 µM; in the experiment on PC-3 prostate, 4.51 µM.
In the case of `OC(CNC1CCCC1)Cn1c2ccccc2c2ccccc21` (configuration not stated), the GI50 was 25.1 µM with BT-549 breast; 82.3 µM with DU-145 prostate; greater than 100 µM in the experiment with MCF7 breast; greater than 100 µM in the experiment on MDA-MB-435; greater than 100 µM in the experiment on PC-3 prostate. Besides, the TGI in the experiment on BT-549 breast, in the experiment on DU-145 prostate, in the experiment with MCF7 breast, in the experiment with MDA-MB-435 and with PC-3 prostate was greater than 100 µM in each case.
Consider `COc1ccc2c(c1)OC(N)=C(C#N)C2c1ccc(F)cc1` (configuration not stated), for which the GI50 is 1.63 µM in the experiment with BT-549 breast; 3.05 µM in the experiment on DU-145 prostate; 0.522 µM in the experiment on MCF7 breast; 0.22 µM with MDA-MB-435; 3.09 µM in the experiment with PC-3 prostate. In addition, the TGI in the experiment on BT-549 breast is 31.2 µM; in the experiment with DU-145 prostate, greater than 100 µM; with MCF7 breast it was greater than 100 µM; with MDA-MB-435, 0.601 µM; with PC-3 prostate, 99 µM.
Turning to `O=C(/C=C/c1ccc(C(F)(F)F)cc1)c1ccc(Nc2nc(NCCO)nc(N3CCOCC3)n2)cc1`, the GI50 was 1.56 µM in the experiment with BT-549 breast; 2.19 µM in the experiment on DU-145 prostate; 1.25 µM in the experiment with MCF7 breast; 2.23 µM with MDA-MB-435; 2.24 µM in the experiment with PC-3 prostate. Also, the TGI with BT-549 breast was found to be 3.09 µM; in the experiment on DU-145 prostate, 4.58 µM; in the experiment on MCF7 breast, 3.95 µM; with MDA-MB-435 it was 5.35 µM; in the experiment on PC-3 prostate, 7.83 µM.
Turning to `O=Cc1ccc(O)c2ncccc12`, the GI50 is 3.59 µM with BT-549 breast; 7.28 µM with DU-145 prostate; 2.45 µM in the experiment with MCF7 breast; 3.83 µM with MDA-MB-435; 4.01 µM with PC-3 prostate. Also, the TGI in the experiment on BT-549 breast was greater than 71.8 µM; with DU-145 prostate, 32.1 µM; in the experiment on MCF7 breast, 8.11 µM; with MDA-MB-435, 27.8 µM; in the experiment on PC-3 prostate, greater than 46.6 µM.
`C=C1CC[C@@H]2[C@](C)(COC(C)=O)[C@H](OC(C)=O)CC[C@@]2(C)[C@@H]1C/C=C1/C(=O)OC[C@H]1OC(C)=O`: the GI50 in the experiment with BT-549 breast was 2.29 µM; in the experiment with DU-145 prostate, 4.47 µM; with MCF7 breast, 1.83 µM; in the experiment with MDA-MB-435, 2.63 µM; in the experiment on PC-3 prostate, 6.07 µM. The TGI in the experiment with BT-549 breast came out at 5.63 µM; in the experiment with DU-145 prostate, 14.7 µM; with MCF7 breast it was 6.79 µM; in the experiment with MDA-MB-435, 10.1 µM; in the experiment on PC-3 prostate, 19.9 µM.
For `CCCN(CCC)C(=O)[C@H](CC)[C@@H]1CC[C@@H](C)[C@@H]([C@H](C)[C@@H](O)[C@@H](C)C(=O)[C@H](CC)C2O[C@]3(C=C[C@@H](O)[C@]4(CC[C@@](C)([C@H]5CC[C@](O)(CC)[C@H](C)O5)O4)O3)[C@H](C)C[C@@H]2C)O1` (some centres not stated), the GI50 in the experiment with BT-549 breast was 3.05 µM; in the experiment on DU-145 prostate, 2.05 µM; in the experiment with MCF7 breast, 2.46 µM; in the experiment on MDA-MB-435, 2.96 µM; with PC-3 prostate, 2.05 µM. The TGI was 13.2 µM in the experiment on BT-549 breast; 4.21 µM in the experiment on DU-145 prostate; 7.76 µM in the experiment on MCF7 breast; 9.71 µM with MDA-MB-435; 11 µM in the experiment on PC-3 prostate.
With `COc1ccc(/C=C/C(=O)c2cc3c(N)c(C(=O)Nc4ccccc4)sc3nc2C)cc1`, the GI50 with BT-549 breast is 0.797 µM; in the experiment with DU-145 prostate, 0.19 µM; in the experiment on MCF7 breast, 0.128 µM; with PC-3 prostate, 0.184 µM. Moreover, the TGI with BT-549 breast was greater than 50 µM; in the experiment on DU-145 prostate, greater than 22.9 µM; in the experiment with MCF7 breast, greater than 50 µM; with PC-3 prostate it was greater than 50 µM.
On to `N#C[S-].[Au+].c1ccc(CN2[CH-]N(Cc3ccccc3)C(c3ccccc3)=C2c2ccccc2)cc1`, for which the GI50 was 0.47 µM with BT-549 breast, 0.479 µM in the experiment with DU-145 prostate and 0.492 µM in the experiment with MDA-MB-435. The TGI stood at 1.88 µM in the experiment on BT-549 breast, 1.69 µM in the experiment with DU-145 prostate and 1.74 µM with MDA-MB-435.
On to `COc1cc([N+](=O)[O-])c(OC)cc1-c1nc2sc(Cl)cn2c1/C=N/NC(=N)N/N=C/c1c(-c2cc(OC)c([N+](=O)[O-])cc2OC)nc2sc(Cl)cn12`, for which, in the experiment on DU-145 prostate, the GI50 was 1.91 µM and the TGI is 4.06 µM. In the experiment with PC-3 prostate, the GI50 is 1.97 µM and the TGI stood at 3.47 µM.
